Activity calls are given as the source filed them. No cut-off for these calls is given here.
Key:
SF-295 [1] = assay: Growth inhibition of human SF295 cells after 48 hrs by SRB assay; format: functional; conditions: SF-295, 48 h
BXPC-3 [2] = assay: Cell cycle arrest in human BxPC3 cells assessed as accumulation at S phase at 50 uM after 24 hrs by propidium iodide staining based flow cytometry (reference value: 33%); format: functional
U-251 [3] = assay: Growth inhibition of human U251 cells after 48 hrs by SRB assay; format: functional; conditions: U-251, 48 h
IGROV-1 [4] = assay: Induction of apoptosis in human IGROV1 cells assessed as healthy cells at 50 uM after 24 hrs by Annexin V/7-AAD staining based flow cytometry (reference value: 86%); format: functional
PC-3 [5] = assay: Cell cycle arrest in human PC3 cells assessed as accumulation at S phase at 0.5 uM after 24 hrs by propidium iodide staining based flow cytometry (reference value: 42%); format: functional
MCF7 = assay: Growth inhibition of human MCF7 cells after 48 hrs by SRB assay; format: functional; conditions: MCF7, 48 h
IGROV-1 [6] = assay: Induction of apoptosis in human IGROV1 cells assessed as late apoptotic cells at 15 uM after 24 hrs by Annexin V/7-AAD staining based flow cytometry (reference value: 4%); format: functional
PC-3 [7] = assay: Cell cycle arrest in human PC3 cells assessed as accumulation at >G2 phase at 15 uM after 24 hrs by propidium iodide staining based flow cytometry (reference value: 6%); format: functional
HCT-15 = assay: Growth inhibition of human HCT15 cells after 48 hrs by SRB assay; format: functional; conditions: HCT-15, 48 h
PC-3 [8] = assay: Induction of apoptosis in human PC3 cells assessed as early apoptotic cells at 0.5 uM after 24 hrs by Annexin V/7-AAD staining based flow cytometry (reference value: 5%); format: functional
BXPC-3 [9] = assay: Cell cycle arrest in human BxPC3 cells assessed as accumulation at G2 phase at 50 uM after 24 hrs by propidium iodide staining based flow cytometry (reference value: 12%); format: functional
SF-268 = assay: Growth inhibition of human SF268 cells after 48 hrs by SRB assay; format: functional; conditions: SF-268, 48 h
BXPC-3 [10] = assay: Cell cycle arrest in human BxPC3 cells assessed as accumulation at G1 phase at 15 uM after 24 hrs by propidium iodide staining based flow cytometry (reference value: 41%); format: functional
HL-60(TB) = assay: Growth inhibition of human HL-60(TB) cells after 48 hrs by SRB assay; format: functional; conditions: HL-60, 48 h
IGROV-1 [11] = assay: Induction of apoptosis in human IGROV1 cells assessed as late apoptotic cells at 0.5 uM after 24 hrs by Annexin V/7-AAD staining based flow cytometry (reference value: 4%); format: functional
IGROV-1 [12] = assay: Cell cycle arrest in human IGROV1 cells assessed as accumulation at G2 phase at 0.5 uM after 24 hrs by propidium iodide staining based flow cytometry (reference value: 19%); format: functional
[13] = (§1) Growth inhibition of HUVEC cells after 48 hrs by SRB assay; format: cell-based; conditions: human, HUVEC cells
HUVEC = assay: as §1; format: cell-based; conditions: human, huvec, 48 h
BXPC-3 [14] = assay: Cell cycle arrest in human BxPC3 cells assessed as accumulation at G2 phase at 5 uM after 24 hrs by propidium iodide staining based flow cytometry (reference value: 12%); format: functional
PC-3 [15] = assay: Cell cycle arrest in human PC3 cells assessed as accumulation at >G2 phase at 0.5 uM after 24 hrs by propidium iodide staining based flow cytometry (reference value: 6%); format: functional
BXPC-3 [16] = assay: Induction of apoptosis in human BxPC3 cells assessed as healthy cells at 0.5 uM after 24 hrs by Annexin V/7-AAD staining based flow cytometry (reference value: 77%); format: functional
IGROV-1 [17] = assay: Cell cycle arrest in human IGROV1 cells assessed as accumulation at G1 phase at 0.5 uM after 24 hrs by propidium iodide staining based flow cytometry (reference value: 27%); format: functional
U-251 [18] = assay: Cytotoxicity against human U251 cells after 48 hrs by trypan blue assay; format: functional, cell-based
BXPC-3 [19] = assay: Cell cycle arrest in human BxPC3 cells assessed as accumulation at S phase at 0.5 uM after 24 hrs by propidium iodide staining based flow cytometry (reference value: 33%); format: functional
[20] = Selectivity ratio of IC50 for human sigma-1 receptor to IC50 for rat sigma-2 receptor
[21] = Displacement of [3H](+)1-DTG from sigma-2 receptor expressed in rat cerebral cortex membranes after 2 hrs by liquid scintillation spectroscopy; format: cell membranes, Membrane
PC-3 [22] = assay: Induction of apoptosis in human PC3 cells assessed as cleaved caspase-3 containing cells at 0.5 uM after 24 hrs by FACS analysis (reference value: 3%); format: functional
PC-3 [23] = assay: Cell cycle arrest in human PC3 cells assessed as accumulation at G2 phase at 5 uM after 24 hrs by propidium iodide staining based flow cytometry (reference value: 13%); format: functional
Mus musculus = assay: Toxicity in SCID mouse assessed as mortality at 40 mg/kg, ip after 3 to 4 weeks chronic treatment; format: organism-based; parameters: dose 40 mg/kg, route intraperitoneal; conditions: in vivo
SF-295 [24] = assay: Cytotoxicity against human SF295 cells after 48 hrs by trypan blue assay; format: functional, cell-based
BXPC-3 [25] = assay: Induction of apoptosis in human BxPC3 cells assessed as late apoptotic cells at 5 uM after 24 hrs by Annexin V/7-AAD staining based flow cytometry (reference value: 9%); format: functional
BXPC-3 [26] = assay: Cell cycle arrest in human BxPC3 cells assessed as accumulation at >G2 phase at 0.5 uM after 24 hrs by propidium iodide staining based flow cytometry (reference value: 6%); format: functional
BXPC-3 [27] = assay: Induction of apoptosis in human BxPC3 cells assessed as healthy cells at 5 uM after 24 hrs by Annexin V/7-AAD staining based flow cytometry (reference value: 77%); format: functional
MIA PaCa-2 = assay: Antitumor activity against human MIAPaCa2 cells xenografted in SCID mouse assessed as reduction in tumor volume at 45 mg/kg, ip for 3 consecutive days; format: functional; conditions: MIA PaCa-2, ip, route intraperitoneal
IGROV-1 [28] = assay: Cell cycle arrest in human IGROV1 cells assessed as accumulation at < G1 phase at 5 uM after 24 hrs by propidium iodide staining based flow cytometry (reference value: 4%); format: functional
DU-145 = assay: Growth inhibition of human DU145 cells after 48 hrs by SRB assay; format: functional; conditions: DU-145, 48 h
PC-3 [29] = assay: Induction of apoptosis in human PC3 cells assessed as healthy cells at 5 uM after 24 hrs by Annexin V/7-AAD staining based flow cytometry (reference value: 92%); format: functional
BXPC-3 [30] = assay: Growth inhibition of human BxPC3 cells after 48 hrs by SRB assay; format: functional; conditions: BXPC-3, 48 h
[31] = read-out: LC50 (the source's name)

## CN1CCN(c2ccc(C(c3ccccc3)C34CC5CC(CC(C5)C3)C4)cc2)CC1 (stereo not given)
SF-295 [1]
  GI50: 11 µM
  TGI: 48.1 µM
SF-295 [1]; [31]
  CC50: 85.2 µM
BXPC-3 [2]
  Activity: 24%
U-251 [3]
  GI50: 4 µM
  TGI: 6.57 µM
U-251 [3]; [31]
  CC50: 9.14 µM
IGROV-1 [4]
  Activity: 31%
PC-3 [5]
  Activity: 40%
MCF7
  GI50: 11.6 µM
  TGI: 16.9 µM
MCF7; [31]
  CC50: 3.17 µM
IGROV-1 [6]
  Activity: 15%
PC-3 [7]
  Activity: 5%
HCT-15
  GI50: 5.54 µM
  LC50: 100 µM
  TGI: 12.8 µM
PC-3 [8]
  Activity: 3%
BXPC-3 [9]
  Activity: 13%
SF-268
  GI50: 18.9 µM
  TGI: 61.6 µM
SF-268; [31]
  CC50: 100 µM
BXPC-3 [10]
  Activity: 51%
HL-60(TB)
  GI50: 5.04 µM
  LC50: 78.5 µM
  TGI: 9.63 µM
IGROV-1 [11]
  Activity: 3%
IGROV-1 [12]
  Activity: 20%
[13]
  GI50 at 48 h: 4.52 µM
HUVEC
  LC50: 10.34 µM
  TGI: 7.43 µM
BXPC-3 [14]
  Activity: 12%
PC-3 [15]
  Activity: 4%
BXPC-3 [16]
  Activity: 84%
IGROV-1 [17]
  Activity: 26%
U-251 [18]
  Activity: Active
BXPC-3 [19]
  Activity: 34%
[20]
  Ratio IC50: 11.8
[21]
  IC50: 0.0376 µM
PC-3 [22]
  Activity: 1%
PC-3 [23]
  Activity: 13%
Mus musculus
  Activity: Non-toxic
SF-295 [24]
  Activity: Active
BXPC-3 [25]
  Activity: 17%
BXPC-3 [26]
  Activity: 8%
BXPC-3 [27]
  Activity: 65%
MIA PaCa-2
  inhibition in vivo at 45 mg/kg: 47.5%
IGROV-1 [28]
  Activity: 5%
DU-145
  GI50: 6.43 µM
  TGI: 65.5 µM
DU-145; [31]
  CC50: 100 µM
PC-3 [29]
  Activity: 92%
BXPC-3 [30]
  GI50: 3.84 µM
  LC50: 16.6 µM
  TGI: 6.96 µM

— ChEMBL document CHEMBL2021794, “Synthesis, σ₁, σ₂-receptors binding affinity and antiproliferative action of new C1-substituted adamantanes” (Bioorg Med Chem, 2012)
